Reference: the NIST ThermoML archive (doi:10.1021/je900212d)

Legend:
[1] = 101.33 kPa, Liquid
[2] = xn = mol fraction of the nth substance listed; conditions: 101 kPa, Liquid

ClCCCl [1,2-dichloroethane]
[1]
Conditions	mass density [kg/m3]	viscosity [mPa·s]
288.15 K	1259	0.87
293.15 K	1251.9	0.8112
298.15 K	1247.4	0.7597
303.15 K	1239	0.7112
308.15 K	1231.2	0.6747
313.15 K	1222	0.6269

ClCCCl [1,2-dichloroethane] + CCCO
[2]
Conditions	mass density [kg/m3]	viscosity [mPa·s]
288.15 K, x2 = 0.1054	1211	0.8441
288.15 K, x2 = 0.2095	1166.4	0.8809
288.15 K, x2 = 0.3124	1121.8	0.9238
288.15 K, x2 = 0.4141	1078.4	0.998
288.15 K, x2 = 0.5146	1032.4	1.1
288.15 K, x2 = 0.6139	986	1.256
288.15 K, x2 = 0.7121	942.8	1.464
288.15 K, x2 = 0.8092	895.4	1.726
288.15 K, x2 = 0.9051	843.5	2.029
293.15 K, x2 = 0.1054	1205	0.785
293.15 K, x2 = 0.2096	1159.7	0.8086
293.15 K, x2 = 0.3126	1116.2	0.8504
293.15 K, x2 = 0.4143	1072.1	0.9115
293.15 K, x2 = 0.5148	1026.6	0.9988
293.15 K, x2 = 0.6141	980.6	1.139
293.15 K, x2 = 0.7123	938.6	1.31
293.15 K, x2 = 0.8093	890.5	1.534
293.15 K, x2 = 0.9052	839.4	1.795
298.15 K, x2 = 0.1054	1199.2	0.7324
298.15 K, x2 = 0.2095	1154.4	0.7472
298.15 K, x2 = 0.3124	1109.3	0.7831
298.15 K, x2 = 0.4141	1067.1	0.8368
298.15 K, x2 = 0.5146	1021.3	0.911
298.15 K, x2 = 0.614	976.2	1.035
298.15 K, x2 = 0.7122	934	1.176
298.15 K, x2 = 0.8092	885.9	1.37
298.15 K, x2 = 0.9052	836.3	1.603
303.15 K, x2 = 0.1056	1192.6	0.6845
303.15 K, x2 = 0.2099	1147.7	0.7003
303.15 K, x2 = 0.3129	1104.2	0.7255
303.15 K, x2 = 0.4146	1061.1	0.7704
303.15 K, x2 = 0.5151	1016	0.8342
303.15 K, x2 = 0.6144	970.5	0.9344
303.15 K, x2 = 0.7125	929.7	1.061
303.15 K, x2 = 0.8095	882.6	1.228
303.15 K, x2 = 0.9053	832.8	1.441
308.15 K, x2 = 0.1057	1183.4	0.64
308.15 K, x2 = 0.21	1140.7	0.6502
308.15 K, x2 = 0.3131	1097.2	0.6731
308.15 K, x2 = 0.4149	1054.9	0.7116
308.15 K, x2 = 0.5154	1009.5	0.7657
308.15 K, x2 = 0.6147	964	0.8541
308.15 K, x2 = 0.7128	924.3	0.9603
308.15 K, x2 = 0.8097	877.3	1.105
308.15 K, x2 = 0.9054	827.5	1.303
313.15 K, x2 = 0.1058	1174.9	0.6002
313.15 K, x2 = 0.2103	1133.5	0.6056
313.15 K, x2 = 0.3134	1089	0.6256
313.15 K, x2 = 0.4152	1047.4	0.6588
313.15 K, x2 = 0.5158	1004	0.706
313.15 K, x2 = 0.615	956.7	0.7849
313.15 K, x2 = 0.7131	918.9	0.8728
313.15 K, x2 = 0.8099	870.1	0.9952
313.15 K, x2 = 0.9055	821.5	1.176

O=Cc1ccccc1 [benzaldehyde]
[1]
Conditions	mass density [kg/m3]	viscosity [mPa·s]
288.15 K	1056	1.704
293.15 K	1052.8	1.558
298.15 K	1047	1.427
303.15 K	1043.2	1.316
308.15 K	1039	1.223
313.15 K	1034.4	1.131

O=Cc1ccccc1 [benzaldehyde] + CCCO
[2]
Conditions	mass density [kg/m3]	viscosity [mPa·s]
288.15 K, x2 = 0.099	1038.8	1.689
288.15 K, x2 = 0.193	1021.8	1.661
288.15 K, x2 = 0.3112	997.7	1.622
288.15 K, x2 = 0.3949	980.8	1.637
288.15 K, x2 = 0.5004	956.4	1.645
288.15 K, x2 = 0.5997	932.9	1.683
288.15 K, x2 = 0.6932	–	1.774
288.15 K, x2 = 0.8026	875.4	1.873
288.15 K, x2 = 0.9046	843.1	2.075
293.15 K, x2 = 0.0988	1034.2	1.536
293.15 K, x2 = 0.1927	1017	1.505
293.15 K, x2 = 0.3108	993.2	1.468
293.15 K, x2 = 0.3944	976.2	1.475
293.15 K, x2 = 0.5	951.6	1.483
293.15 K, x2 = 0.5992	928.6	1.501
293.15 K, x2 = 0.6927	–	1.588
293.15 K, x2 = 0.8023	871.4	1.669
293.15 K, x2 = 0.9045	839.1	1.84
298.15 K, x2 = 0.099	1029.9	1.405
298.15 K, x2 = 0.1929	1012.8	1.373
298.15 K, x2 = 0.3111	989.2	1.337
298.15 K, x2 = 0.3948	971.3	1.333
298.15 K, x2 = 0.5003	947	1.342
298.15 K, x2 = 0.5996	923.7	1.363
298.15 K, x2 = 0.693	–	1.423
298.15 K, x2 = 0.8025	867.6	1.491
298.15 K, x2 = 0.9046	835.3	1.64
303.15 K, x2 = 0.0989	1025.9	1.292
303.15 K, x2 = 0.1927	1008.1	1.258
303.15 K, x2 = 0.3108	984.8	1.224
303.15 K, x2 = 0.3945	967	1.216
303.15 K, x2 = 0.5	942.9	1.223
303.15 K, x2 = 0.5993	919.5	1.237
303.15 K, x2 = 0.6928	–	1.287
303.15 K, x2 = 0.8023	863.6	1.342
303.15 K, x2 = 0.9045	831.6	1.491
308.15 K, x2 = 0.0988	1021.4	1.193
308.15 K, x2 = 0.1926	1003.4	1.158
308.15 K, x2 = 0.3106	980.1	1.126
308.15 K, x2 = 0.3942	962.7	1.12
308.15 K, x2 = 0.4997	937.8	1.117
308.15 K, x2 = 0.599	915.5	1.128
308.15 K, x2 = 0.6925	–	1.169
308.15 K, x2 = 0.8022	858.9	1.215
308.15 K, x2 = 0.9044	827.3	1.317
313.15 K, x2 = 0.0986	1015.1	1.104
313.15 K, x2 = 0.1923	997.8	1.069
313.15 K, x2 = 0.3102	973.8	1.039
313.15 K, x2 = 0.3938	956.5	1.024
313.15 K, x2 = 0.4993	934	1.026
313.15 K, x2 = 0.5986	910.9	1.033
313.15 K, x2 = 0.6922	894.8	1.063
313.15 K, x2 = 0.8019	853.6	1.099
313.15 K, x2 = 0.9043	823.6	1.188

O=Cc1ccccc1 [benzaldehyde] + ClCCCl
[2]
Conditions	mass density [kg/m3]	viscosity [mPa·s]
288.15 K, x1 = 0.1005	1233	0.9491
288.15 K, x1 = 0.2068	1207.2	1.034
288.15 K, x1 = 0.2964	1186.5	1.097
288.15 K, x1 = 0.3902	1166	1.171
288.15 K, x1 = 0.4888	1146.4	1.27
288.15 K, x1 = 0.5923	1125.5	1.348
288.15 K, x1 = 0.7012	1107.6	1.454
288.15 K, x1 = 0.8159	1086.7	1.58
288.15 K, x1 = 0.9061	1070.6	1.66
293.15 K, x1 = 0.1007	1227.6	0.8854
293.15 K, x1 = 0.2072	1200	0.9592
293.15 K, x1 = 0.2969	1180.5	1.017
293.15 K, x1 = 0.3909	1161.8	1.085
293.15 K, x1 = 0.4894	1139.5	1.168
293.15 K, x1 = 0.5929	1119.9	1.242
293.15 K, x1 = 0.7017	1102.2	1.335
293.15 K, x1 = 0.8163	1082	1.445
293.15 K, x1 = 0.9063	1066.4	1.517
298.15 K, x1 = 0.1006	1220.5	0.8213
298.15 K, x1 = 0.2069	1196.1	0.8951
298.15 K, x1 = 0.2965	1174.6	0.9471
298.15 K, x1 = 0.3904	1155.5	1.008
298.15 K, x1 = 0.4889	1133.4	1.08
298.15 K, x1 = 0.5924	1117.3	1.151
298.15 K, x1 = 0.7013	1098.6	1.233
298.15 K, x1 = 0.816	1077.9	1.328
298.15 K, x1 = 0.9061	1063.1	1.394
303.15 K, x1 = 0.1009	1214.3	0.7706
303.15 K, x1 = 0.2074	1190	0.8362
303.15 K, x1 = 0.2972	1169.8	0.8848
303.15 K, x1 = 0.3911	1150.1	0.9515
303.15 K, x1 = 0.4897	1126.5	1.003
303.15 K, x1 = 0.5932	1112.7	1.07
303.15 K, x1 = 0.702	1094.4	1.143
303.15 K, x1 = 0.8165	1073.2	1.225
303.15 K, x1 = 0.9064	1058.5	1.285
308.15 K, x1 = 0.1011	1206.5	0.726
308.15 K, x1 = 0.2078	1182.6	0.7824
308.15 K, x1 = 0.2976	1162.9	0.828
308.15 K, x1 = 0.3917	1144.1	0.8897
308.15 K, x1 = 0.4903	1121	0.9346
308.15 K, x1 = 0.5937	1107.8	0.998
308.15 K, x1 = 0.7025	1091	1.067
308.15 K, x1 = 0.8168	1068.5	1.135
308.15 K, x1 = 0.9066	1053	1.189
313.15 K, x1 = 0.1013	1198	0.6795
313.15 K, x1 = 0.2083	1173.6	0.7327
313.15 K, x1 = 0.2983	1153.9	0.777
313.15 K, x1 = 0.3924	1136.7	0.8272
313.15 K, x1 = 0.491	1115.5	0.8725
313.15 K, x1 = 0.5945	1102.2	0.9318
313.15 K, x1 = 0.7031	1085.5	0.9944
313.15 K, x1 = 0.8173	1063.1	1.054
313.15 K, x1 = 0.9069	1049.7	1.107

CCCO [propan-1-ol]
[1]
Conditions	mass density [kg/m3]	viscosity [mPa·s]
288.15 K	810.5	2.42
293.15 K	806.5	2.137
298.15 K	803.2	1.894
303.15 K	799.3	1.684
308.15 K	795.2	1.504
313.15 K	790.4	1.352
